The text below walks through data of US5245034A, “Compound having vessel smooth muscle relaxation activity” (Hidaka; Kiroyoshi, priority 1988, dated 1993).

As a reminder, the IC50 is the midpoint of a concentration-inhibition curve.

Experiment [1] relates to washed platelets. As to the kind of experiment: Platelet Agglutination Inhibition (P.A.), collagen-induced. The class given is cell-based, human (healthy person). The note with it: Homo sapiens, washed platelets, collagen, 37° C., read-out: P.A. (IC50). The protocol: To this suspension was added one sixth volume of ACD solution, and the whole was further centrifuged at 1500×G for 5 minutes to prepare a platelet pellet. The platelet pellet was then suspended in a modified HEPES Tyrode solution to obtain about 3×10^5 /μl in washed platelet suspension.
To 270 μl of the washed platelet suspension was added 3 μl of a solution of a test compound dissolved in an appropriate medium in different concentration, and the mixture was pre-incubated at 37° C. for 2 minutes.
As a control, the above-mentioned procedure was carried out except that the test medium without a test compound was used, and the absorbance before addition of collagen and the maximum absorbance after addition of collagen were measured, and the difference between both absorbances was taken as 100% agglutination.
For test compound, the absorbance before an addition of collagen and the maximum absorbance after an addition of collagen were measured, and a percent of the inhibition was determined, compared with the control.

Experiment [2] relates to superior mesenteric artery (contracted by potassium chloride). Put plainly: Vessel Smooth Muscle Relaxation Action (V.R.). The class given is cell-based, rabbit. The note with it: Oryctolagus cuniculus; concentration relaxing KCl-contracted strain to 50%; cumulative administration; read-out: V.R. (ED50). From the text: The specimen was suspended by loading a strain in Krebs-Henseleit solution through which an oxygen gas containing 5% carbon dioxide was bubbled. The specimen was contracted by adding potassium chloride to maintain a predetermined strain. Thereafter, a test compound was cumulatively administrated.

Experiment [3] addresses Calmodulin-Dependent Phosphodiesterase (Ca^2+ PDE). Put plainly: Calmodulin-Dependent Phosphodiesterase Inhibition (Ca^2+ PDE). Format: biochemical, rat. The note with it: [^3 H]-cGMP, 30° C. The method, then: Phosphodiesterase (Ca^2+ PDE)Ca^2+ PDE was partially purified from the brain of rat by DEAE-Sepharose column chromatography.
Calmodulin was purified from the calf brain using a calmodulin inhibitor W-7 affinity column.
A reaction mixture contained 20 μl of 500 mM Tris-HCl (pH 8.0), 20 μl of 50 mM MgCl2, 20 μl of 2 mM CaCl2 (or 10 mM EGTA), 20 μl of 1 mg/ml bovine serum albumin, PDE, […] of calmodulin, test sample and distilled water to make total volume 200 μl. To the mixture was added 20 μl of 4 μM [^3 H]-cGMP (2.5 μCi/ml), the mixture was incubated at 30° C. for 15 minutes, and then heated in boiling water for 3 to 5 minutes to terminate the reaction, and cooled in ice-water bath. 20 μg of 5'-nucleotidase (Snake venum) was added to the mixture, and the mixture was again incubated at 30° C. for 10 minutes. After addition of about 2 ml of water, the sample was applied to a cation exchange resin column (Biorad AG.AG50W-X4 to adsorbe the [^3 H]-guanosine and additionally about 2 ml of washing water for the sample was added to the column. The column was washed with about 20 ml of water, and the adsorbed [^3 H]-guanosine was eluted with 3 ml of 3N NH4 OH, and the elute was directly received by a vial. After an addition of 10 ml of an emulsified scintillation solution (ACS-II, AMERSHAM) the radio activity was measured by a scintillation counter LS7500 (Beckmann). The enzyme activity in the presence of calmodulin was taken as […], and a concentration of a test compound in μM which provides a 50% inhibition was expressed as IC50.

As for `Cc1ccc(S(=O)(=O)N(C)c2ccc(CC(C(=O)N3CCN(c4ccccc4)CC3)N(C)S(=O)(=O)c3cccc4cnccc34)cc2)cc1` (stereo not drawn) [Example 26, 1-{N-(5-isoquinolinesulfonyl)-N-methyl-p-[N'-methyl-N'-(p-toluenesulfonyl)amino]phenylalanyl}-4-phenylpiperazine], the IC50 in experiment [1] is 10 µM.
The same measure, in the same setting: under `O=S(=O)(NC(Cc1ccc(O)cc1)CN1CCN(c2ncccn2)CC1)c1cccc2cnccc12` (stereo not drawn) [Example 40, N-{1-(p-hydroxybenzyl)-2-[4-(2-pyrimidyl)piperazinyl]ethyl}-5-isoquinolinesulfonamide] stands 4.7 µM.
Still for that read-out and setting: to `CN(C(Cc1ccc(OS(=O)(=O)c2cccc3cnccc23)cc1)CN1CCN(C(=O)OCc2ccccc2)CC1)S(=O)(=O)c1cccc2cnccc12` (stereo not drawn) [Example 60, N-{2-(4-Benzyloxycarbonylpiperazinyl)-1-[P-(5-Isoquinolinesulfonyloxy)Benzyl]Ethyl}-N-Methyl-5-Isoquinolinesulfonamide] belongs 10 µM; to `CN(C(Cc1ccc(OS(=O)(=O)c2cccc3cnccc23)cc1)CN1CCN(S(=O)(=O)c2ccccc2)CC1)S(=O)(=O)c1cccc2cnccc12` (stereo not drawn) [Example 61, N-{2-[(4-Benzenesulfonyl)Piperazinyl]-1-[P-(5-Isoquinolinesulfonyloxy)Benzyl]Ethyl}-N-Methyl-5-Isoquinolinesulfonamide], 10 µM; to `CN(C(Cc1ccc(OS(=O)(=O)c2cccc3cnccc23)cc1)CN1CCN(C(=O)c2ccccc2)CC1)S(=O)(=O)c1cccc2cnccc12` (stereo not drawn) [Example 74, N-{2-(4-Benzoylpiperazinyl)-1-[P-(5-Isoquinolinesulfonyloxy)Benzyl]Ethyl}-N-Methyl-5-Isoquinolinesulfonamide], 2.8 µM.
As for `CN(Cc1ccccc1)C1CCN(CC(Cc2ccc(O)cc2)N(C)S(=O)(=O)c2cccc3cnccc23)CC1` (stereo not drawn) [Example 97, N-{2-[4-(N-Benzyl-N-Methylamino)Piperidino]-1-(P-Hydroxybenzyl)Ethyl}-N-Methyl-5-Isoquinolinesulfonamide], the half-maximal inhibitory concentration (IC50) in experiment [1] was 39 µM.
As to `CN([C@@H](Cc1ccc(O)cc1)C(=O)N1CCN(c2ccccc2)CC1)S(=O)(=O)c1cccc2cnccc12` [Example 110, 1-[N-(5-Isoquinolinesulfonyl)-N-Methyltyrosyl]-4-Phenylpiperazine], the EC50 in experiment [2] worked out at 3.8 µM. Besides, half-maximal inhibition in experiment [3] (IC50) required 9.3 µM.
Regarding `O=C([C@H](Cc1ccc(O)cc1)NS(=O)(=O)c1cccc2cnccc12)N1CCN(c2ccccc2)CC1` [Example 111, 1-[N-(5-isoquinolinesulfonyl)tyrosyl]-4-phenylpiperazine], the EC50 in experiment [2] was 7 µM. Also, in experiment [3], the concentration for half-maximal inhibition (IC50) was 77 µM.
In the same order, the values of `O=C(CCc1ccccc1)N1CCCN(CC(Cc2ccc(O)cc2)NS(=O)(=O)c2cccc3cnccc23)CC1` (stereo not drawn) [Example 119, N-{1-(P-Hydroxybenzyl)-2-[4-(3-Phenylpropionyl)Homopiperazinyl]Ethyl}-5-Isoquinolinesulfonylamide] are 11 µM and 51 µM.
Consider `COc1ccc(N2CCN(CC(Cc3ccc(N4C(=O)c5ccccc5C4=O)cc3)N(C)S(=O)(=O)c3cccc4cnccc34)CC2)cc1` (stereo not drawn) [Example 126, N-{2-[4-(P-Methoxyphenyl)Piperazinyl]-1-(P-Phthalimidebenzyl)Ethyl}-N-Methyl-5-Isoquinolinesulfonamide], for which the concentration for half-maximal inhibition (IC50) in experiment [1] was 10 µM.
Still for that read-out and setting: to `COc1ccc(N2CCN(CC(Cc3ccc(N)cc3)NS(=O)(=O)c3cccc4cnccc34)CC2)cc1` (stereo not drawn) [Example 127, N-{1-(p-aminovenzyl)-2-[4-(p-methoxyphenyl)piperazinyl]ethyl}-5-isoquinolinesulfonamide] belongs 39 µM.
As for `O=S(=O)(Nc1ccccc1NCC=Cc1ccc(Cl)cc1)c1cccc2cnccc12` [Example 142, N-[2-(4-Chlorocinnamylamino)Phenyl]-5-Isoquinolinesulfonamide], the EC50 in experiment [2] was found to be 6.8 µM. The compound further gave a half-maximal inhibitory concentration (IC50) in experiment [3] of 1.1 µM.
For the compound `CN(c1ccccc1NCC=Cc1ccc(Cl)cc1)S(=O)(=O)c1cccc2cnccc12` [Example 143, N-[2-(4-Chlorocinnamylamino)Phenyl]-N-Methyl-5 -Isoquinolinesulfonamide], the EC50 in experiment [2] came out at 0.82 µM. In experiment [3], this compound came in with an IC50 of 15 µM.
In the same order, the values of `O=S(=O)(c1cccc2cnccc12)N1CCN(CC=Cc2ccc(Cl)cc2)c2ccccc21` [Example 144, 1-(4-Chlorocinnamyl)-4-(5-Isoquinolinesulfonyl)-1,2,3,4-Tetrahydroquinoxaline] are 1.8 µM and 1 µM.
For `O=S(=O)(Nc1ncccc1NCC=Cc1ccc(Cl)cc1)c1cccc2cnccc12` [Example 147, 3-(4-Chlorocinnamylamino)-2-(5-Isoquinolinesulfonylamino)Pyridine], in that order: 1.2 µM and 42 µM.
For `CC(C=Cc1ccccc1[N+](=O)[O-])NCCNS(=O)(=O)c1cccc2cnccc12` (stereo not drawn) [Example 158], in that order: 17 µM and 21 µM.
`O=S(=O)(NCCNCC=Cc1ccc(F)cc1)c1cccc2cnccc12` [Example 175, N-[2-(4-Fluorocinnamylamino)ethyl]-5-Isoquinolinesulfonamide]: the EC50 in experiment [2] came to 2 µM. The same compound gave an IC50 in experiment [3] of 13 µM.
`COc1ccc(C=CCNCCNS(=O)(=O)c2cccc3cnccc23)cc1` [Example 178, N-[2-(4-Methoxycinnamylamino)ethyl]-5-Isoquinolinesulfonamide]: the EC50 in experiment [2] came to 2.4 µM. In experiment [3], this compound returned an IC50 of 50 µM.
In the same order, the values of `O=S(=O)(NCCNCC=CC=Cc1ccc(C(F)(F)F)cc1)c1cccc2cnccc12` [Example 180, N-{2-[5-(4-Trifluoromethylphenyl)-2,4-Pentadienylamino]Ethyl}-5-Isoquinolinesulfonamide] are 1.8 µM and 4.8 µM.
For `O=S(=O)(NCCNCC=Cc1cccc2ccccc12)c1cccc2cnccc12` [Example 184, N-{2-[3-(1-Naphthyl)-2-Propenylamino]ethyl}-5-Isoquinolinesulfonamide], in that order: 2.8 µM and 12 µM.
For `O=S(=O)(NCCNCC#Cc1ccc(Cl)cc1)c1cccc2cnccc12` [Example 189-I, N-{2-[3-(4-Chlorophenyl)-2-Propynylamino]Ethyl}-5-Isoquinolinesulfonamide], in that order: 0.22 µM and 2.7 µM.
For the compound `O=S(=O)(c1cccc2cnccc12)N(CC#Cc1ccc(Cl)cc1)CCNCC#Cc1ccc(Cl)cc1` [Example 189-III], the EC50 in experiment [2] amounted to 0.29 µM. Besides, the midpoint of inhibition in experiment [3], the IC50, lay at 1 µM.
In the same order, the values of `O=S(=O)(c1cccc2cnccc12)N1CCN(CC=Cc2ccc(Cl)cc2)CC1` [Example 191, 1-(4-Chlorocinnamyl)-4-(5-Isoquinolinesulfonyl)Piperazine] are 1.9 µM and 26 µM.
For `CCN(CC=Cc1ccc(Cl)cc1)CCN(CC)S(=O)(=O)c1cccc2cnccc12` [Example 192, N-Ethyl-N-[2-(4-Chloro-N-Ethylcinnamylamino)Ethyl]-5-Isoquinolinesulfonamide], in that order: 0.12 µM and 84 µM.
For `O=CN(CC=Cc1ccc(Cl)cc1)CCNS(=O)(=O)c1cccc2cnccc12` [Example 193, N-[2-(4-Chloro-N-Formylcinnamylamino)ethyl]-5-Isoquinolinesulfonamide], the EC50 in experiment [2] amounted to 3.2 µM. This compound also had an IC50 in experiment [3] of 12 µM.
